#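 Briefly, cells in 96-well plates were exposed to five compound concentrations for 48 h, and endpoints were estimated by linear interpolation. TGI denotes the concentration required for complete inhibition of growth.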 Where a SMILES comes first, the peptide text is derived from it. [ ]: non-standard residue; d: D form. The star is where a group is joined. Phe(4-NO2) = N[CH](Cc1ccc([N+](=O)[O-])cc1)C(=O)O; Boc = CC(C)(C)OC(=O)*
# What was measured:
# Assay in all cases: DTP human tumour cell line panel, 48 h
# A549 NSCLC = tested on: A549 NSCLC
# SW-620 colon = tested on: SW-620 colon
# MOLT-4 leukemia = tested on: MOLT-4 leukemia
# SF-295 CNS = tested on: SF-295 CNS
# HCC-2998 colon = tested on: HCC-2998 colon
# OVCAR-4 ovarian = tested on: OVCAR-4 ovarian
# MDA-MB-231 breast = tested on: MDA-MB-231 breast
# SNB-75 CNS = tested on: SNB-75 CNS
# RXF 393 renal = tested on: RXF 393 renal
# TK-10 renal = tested on: TK-10 renal
# IGROV1 ovarian = tested on: IGROV1 ovarian
# MCF7 breast = tested on: MCF7 breast
# SF-268 CNS = tested on: SF-268 CNS
# COLO 205 colon = tested on: COLO 205 colon
# T-47D breast = tested on: T-47D breast
# K-562 leukemia = tested on: K-562 leukemia
# NCI-H460 lung = tested on: NCI-H460 lung
# OVCAR-5 ovarian = tested on: OVCAR-5 ovarian
# M14 melanoma = tested on: M14 melanoma
# CAKI-1 renal = tested on: CAKI-1 renal
# PC-3 prostate = tested on: PC-3 prostate
# SR leukemia = tested on: SR leukemia
# 786-0 renal = tested on: 786-0 renal
# UO-31 renal = tested on: UO-31 renal
# DU-145 prostate = tested on: DU-145 prostate
# UACC-62 melanoma = tested on: UACC-62 melanoma
# HOP-92 NSCLC = tested on: HOP-92 NSCLC
# HL-60(TB) leukemia = tested on: HL-60(TB) leukemia
# HCT-116 colon = tested on: HCT-116 colon
# HT29 colon = tested on: HT29 colon
# OVCAR-8 ovarian = tested on: OVCAR-8 ovarian
# KM12 colon = tested on: KM12 colon
# SNB-19 CNS = tested on: SNB-19 CNS
# SK-OV-3 ovarian = tested on: SK-OV-3 ovarian
# SF-539 CNS = tested on: SF-539 CNS
# HS 578T breast = tested on: HS 578T breast
# NCI-H23 lung = tested on: NCI-H23 lung
# NCI-H522 lung = tested on: NCI-H522 lung
# LOX IMVI melanoma = tested on: LOX IMVI melanoma
# OVCAR-3 ovarian = tested on: OVCAR-3 ovarian
# NCI-H226 lung = tested on: NCI-H226 lung
# MDA-N = tested on: MDA-N
# MDA-MB-435 = tested on: MDA-MB-435
# U251 CNS = tested on: U251 CNS
# EKVX NSCLC = tested on: EKVX NSCLC
# MALME-3M melanoma = tested on: MALME-3M melanoma
# ACHN renal = tested on: ACHN renal
# SK-MEL-28 melanoma = tested on: SK-MEL-28 melanoma
# HCT-15 colon = tested on: HCT-15 colon
# SN12C renal = tested on: SN12C renal
# HOP-62 NSCLC = tested on: HOP-62 NSCLC
# A498 renal = tested on: A498 renal
# RPMI-8226 leukemia = tested on: RPMI-8226 leukemia
# SK-MEL-5 melanoma = tested on: SK-MEL-5 melanoma
# BT-549 breast = tested on: BT-549 breast
# NCI/ADR-RES ovarian = tested on: NCI/ADR-RES ovarian
# UACC-257 melanoma = tested on: UACC-257 melanoma
# SK-MEL-2 melanoma = tested on: SK-MEL-2 melanoma
# CCRF-CEM leukemia = tested on: CCRF-CEM leukemia
smiles,measurement,setting,value
CNC(=O)CCC(NC(=O)OC(C)(C)C)C(=O)NC(Cc1ccc([N+](=O)[O-])cc1)C(=O)NCC(=O)NC (stereo not drawn) (Boc-Glu(NHMe)-[Phe(4-NO2)]-Gly-NHMe; configuration not given here),TGI,A549 NSCLC,> 100 µM
same,TGI,SW-620 colon,> 100 µM
same,TGI,MOLT-4 leukemia,> 100 µM
same,TGI,SF-295 CNS,> 100 µM
same,TGI,HCC-2998 colon,> 100 µM
same,TGI,OVCAR-4 ovarian,> 100 µM
same,TGI,MDA-MB-231 breast,> 100 µM
same,TGI,SNB-75 CNS,> 100 µM
same,TGI,RXF 393 renal,> 100 µM
same,TGI,TK-10 renal,> 100 µM
same,TGI,IGROV1 ovarian,> 100 µM
same,TGI,MCF7 breast,> 100 µM
same,TGI,SF-268 CNS,> 100 µM
same,TGI,COLO 205 colon,> 100 µM
same,TGI,T-47D breast,> 100 µM
same,TGI,K-562 leukemia,> 100 µM
same,TGI,NCI-H460 lung,> 100 µM
same,TGI,OVCAR-5 ovarian,> 100 µM
same,TGI,M14 melanoma,> 100 µM
same,TGI,CAKI-1 renal,> 100 µM
same,TGI,PC-3 prostate,> 100 µM
same,TGI,SR leukemia,> 100 µM
same,TGI,786-0 renal,> 100 µM
same,TGI,UO-31 renal,> 100 µM
same,TGI,DU-145 prostate,> 100 µM
same,TGI,UACC-62 melanoma,> 100 µM
same,TGI,HOP-92 NSCLC,> 100 µM
same,TGI,HL-60(TB) leukemia,> 100 µM
same,TGI,HCT-116 colon,> 100 µM
same,TGI,HT29 colon,> 100 µM
same,TGI,OVCAR-8 ovarian,> 100 µM
same,TGI,KM12 colon,> 100 µM
same,TGI,SNB-19 CNS,> 100 µM
same,TGI,SK-OV-3 ovarian,> 100 µM
same,TGI,SF-539 CNS,> 100 µM
same,TGI,HS 578T breast,> 100 µM
same,TGI,NCI-H23 lung,> 100 µM
same,TGI,NCI-H522 lung,> 100 µM
same,TGI,LOX IMVI melanoma,> 100 µM
same,TGI,OVCAR-3 ovarian,> 100 µM
same,TGI,NCI-H226 lung,> 100 µM
same,TGI,MDA-N,> 100 µM
same,TGI,MDA-MB-435,> 100 µM
same,TGI,U251 CNS,> 100 µM
same,TGI,EKVX NSCLC,> 100 µM
same,TGI,MALME-3M melanoma,> 100 µM
same,TGI,ACHN renal,> 100 µM
same,TGI,SK-MEL-28 melanoma,> 100 µM
same,TGI,HCT-15 colon,> 100 µM
same,TGI,SN12C renal,> 100 µM
same,TGI,HOP-62 NSCLC,> 100 µM
same,TGI,A498 renal,> 100 µM
same,TGI,RPMI-8226 leukemia,> 100 µM
same,TGI,SK-MEL-5 melanoma,> 100 µM
same,TGI,BT-549 breast,> 100 µM
same,TGI,NCI/ADR-RES ovarian,> 100 µM
COC(=O)C(CCSC)NC(=O)Cc1ccc(C(=O)c2ccccc2)cc1 (stereo not drawn),TGI,A549 NSCLC,> 100 µM
same,TGI,SW-620 colon,> 100 µM
same,TGI,MOLT-4 leukemia,> 100 µM
same,TGI,SF-295 CNS,> 100 µM
same,TGI,UACC-257 melanoma,> 100 µM
same,TGI,HCC-2998 colon,> 100 µM
same,TGI,OVCAR-4 ovarian,> 100 µM
same,TGI,MDA-MB-231 breast,> 100 µM
same,TGI,SK-MEL-2 melanoma,> 100 µM
same,TGI,SNB-75 CNS,> 100 µM
same,TGI,RXF 393 renal,> 100 µM
same,TGI,IGROV1 ovarian,> 100 µM
same,TGI,MCF7 breast,> 100 µM
same,TGI,SF-268 CNS,> 100 µM
same,TGI,COLO 205 colon,> 100 µM
same,TGI,T-47D breast,> 100 µM
same,TGI,K-562 leukemia,> 100 µM
same,TGI,NCI-H460 lung,> 100 µM
same,TGI,OVCAR-5 ovarian,> 100 µM
same,TGI,M14 melanoma,> 100 µM
same,TGI,CAKI-1 renal,> 100 µM
same,TGI,PC-3 prostate,> 100 µM
same,TGI,SR leukemia,> 100 µM
same,TGI,786-0 renal,> 100 µM
same,TGI,UO-31 renal,> 100 µM
same,TGI,DU-145 prostate,> 100 µM
same,TGI,UACC-62 melanoma,> 100 µM
same,TGI,HOP-92 NSCLC,> 100 µM
same,TGI,HL-60(TB) leukemia,> 100 µM
same,TGI,HCT-116 colon,> 100 µM
same,TGI,HT29 colon,65.5 µM
same,TGI,OVCAR-8 ovarian,> 100 µM
same,TGI,KM12 colon,> 100 µM
same,TGI,SNB-19 CNS,> 100 µM
same,TGI,SK-OV-3 ovarian,> 100 µM
same,TGI,HS 578T breast,> 100 µM
same,TGI,NCI-H23 lung,> 100 µM
same,TGI,NCI-H522 lung,> 100 µM
same,TGI,LOX IMVI melanoma,> 100 µM
same,TGI,OVCAR-3 ovarian,> 100 µM
same,TGI,NCI-H226 lung,> 100 µM
same,TGI,MDA-N,35.1 µM
same,TGI,MDA-MB-435,93.6 µM
same,TGI,U251 CNS,> 100 µM
same,TGI,EKVX NSCLC,> 100 µM
same,TGI,MALME-3M melanoma,> 100 µM
same,TGI,ACHN renal,> 100 µM
same,TGI,SK-MEL-28 melanoma,> 100 µM
same,TGI,HCT-15 colon,> 100 µM
same,TGI,SN12C renal,> 100 µM
same,TGI,HOP-62 NSCLC,> 100 µM
same,TGI,A498 renal,> 100 µM
same,TGI,CCRF-CEM leukemia,> 100 µM
same,TGI,RPMI-8226 leukemia,> 100 µM
same,TGI,SK-MEL-5 melanoma,> 100 µM
same,TGI,BT-549 breast,> 100 µM
same,TGI,NCI/ADR-RES ovarian,91.5 µM

# Source: PubChem BioAssay (NCI)
